Source: patent US12227520B2 (priority 2019, dated 2025)
Where two headings read alike, the source gives them in different places.

Columns and labels:
pLai RLuc reporter virus = experiment: microbe, parasite or virus in culture; assay type: cell-based, HIV; details: Human immunodeficiency virus 1, 72 h
Procedure, shortened: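 MT-4 cells pre-infected 2 h at 37 °C with pLai RLuc virus, then exposed to 1:3 serial dilutions of compound in RPMI/10% FBS with or without 50% human serum for 72 h at 37 °C. Renilla luminescence read-out; serum shift = EC50(HS/CCM)/EC50(CCM).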

HIV-1 (IIIB) = experiment: Antiviral assay in MT-4 cells (HIV MT-4 antiviral assay); assay type: cell-based; details: Human immunodeficiency virus 1, IIIB, MT4, 120 h, HIV-1 (IIIB) in MT-4 cells, 5 days incubation; read-out: EC50
Procedure, shortened: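 MT-4 cells infected with HIV-1 IIIB (1:250 diluted stock) and exposed to 1:3 serially diluted compound in RPMI with 10% FBS. Viability read by CellTiter-Glo luminescence after 5 days at 37° C; mock-infected cells and 5 μM AZT as controls.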

[1] = Cytotoxicity assay in MT-4 cells; assay type: cell-based, human; details: human, uninfected MT-4 cells, 5 days incubation; read-out: CC50
Procedure, shortened: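 Infected MT-4 cells (HIV-1 IIIB, fresh 1:250 dilution of concentrated stock) or mock-infected cells exposed to compounds for 5 days at 37 °C. Viability by CellTiter-Glo luminescence; 5 μM AZT positive control, no-drug negative control. Uninfected cells used for cytotoxicity, with 10 μM puromycin as base-level cytotoxicity control.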

[2] = read-out: Antiviral Serum Shift RLuc 50% HS, HS/CCM (RPMI media, 10% FBS, 50% HS, 1% P/S), 72-h incubation
[3] = read-out: Antiviral Serum Shift RLuc CCM, CCM (RPMI media, 10% FBS, 1% P/S), 72-h incubation

Structure (SMILES)	EC50 (pLai RLuc reporter virus; [2])	EC50 (pLai RLuc reporter virus; [3])	EC50 (HIV-1 (IIIB))	CC50 at 5 days [1]
CC[C@@H]1CCC[C@H]2CN1C(=O)c1c(O)c(=O)c(C(=O)NCc3c(F)cc(F)cc3F)cn12 [Example 130-1, (3R,7S)-3-ethyl-12-hydroxy-1,11-dioxo-N-(2,4,6-trifluorobenzyl)-1,4,5,6,7,11-hexahydro-3H-2,7-methanopyrido[1,2-a][1,4]diazonine-10-carboxamide]	4.17 nM	0.213 nM	1.53 nM	12.2 µM
O=C(NCc1c(F)cc(F)cc1F)c1cn2c(c(O)c1=O)C(=O)N1C[C@@H]2CCC[C@@H]1C(F)F [Example 131, (3R, 7S)-3-(difluoromethyl)-12-hydroxy-1,11-dioxo-N-(2,4,6-trifluorobenzyl)-1,4,5,6,7,11-hexahydro-3H-2,7-methanopyrido[1,2-a][1,4]diazonine-10-carboxamide]	11 nM	0.25 nM	1.68 nM	10.2 µM
O=C(NCc1c(F)cc(F)cc1F)c1cn2c(c(O)c1=O)C(=O)N1CCc3cc(Cl)ccc3[C@@H]2C1 [Example 136-2, (13R)-10-chloro-4-hydroxy-3,5-dioxo-N-(2,4,6-trifluorobenzyl)-3,5,8,13-tetrahydro-7H-6,13-methanobenzo[g]pyrido[1,2-a][1,4]diazonine-2-carboxamide]	5.71 nM	0.392 nM	1.55 nM	6.55 µM
C[C@H]1CC[C@H]2CN(C1)C(=O)c1c(O)c(=O)c(C(=O)NCc3c(F)cc(F)cc3F)cn12 [Example 137-1, (4S,7S)-12-hydroxy-4-methyl-1,11-dioxo-N-(2,4,6-trifluorobenzyl)-1,4,5,6,7,11-hexahydro-3H-2,7-methanopyrido[1,2-a][1,4]diazonine-10-carboxamide]	0.707 nM	0.184 nM	2.63 nM	14.7 µM
C[C@@H]1CC[C@H]2CN(C1)C(=O)c1c(O)c(=O)c(C(=O)NCc3c(F)cc(F)cc3F)cn12 [Example 137-2, (4R,7S)-12-hydroxy-4-methyl-1,11-dioxo-N-(2,4,6-trifluorobenzyl)-1,4,5,6,7,11-hexahydro-3H-2,7-methanopyrido[1,2-a][1,4]diazonine-10-carboxamide]	0.821 nM	0.182 nM	2.02 nM	20.7 µM
O=C(NCc1c(F)cc(F)cc1F)c1cn2c(c(O)c1=O)C(=O)N1CCc3ccc(Cl)cc3[C@H]2C1 [Example 138, (13S)-11-chloro-4-hydroxy-3,5-dioxo-N-(2,4,6-trifluorobenzyl)-3,5,8,13-tetrahydro-7H-6,13-methanobenzo[g]pyrido[1,2-a][1,4]diazonine-2-carboxamide]	8.7 nM	0.708 nM	3.17 nM	5.02 µM
O=C(NCc1ccc(F)c(Cl)c1F)c1cn2c(c(O)c1=O)C(=O)N1Cc3cc(F)c(F)cc3C[C@@H]2C1 [Example 139-1, (6R)—N-(3-chloro-2,4-difluorobenzyl)-9,10-difluoro-1-hydroxy-2,14-dioxo-2,7,12,14-tetrahydro-6H-6,13-methanobenzo[f]pyrido[1,2-a][1,4]diazonine-3-carboxamide]	84.3 nM	3.93 nM	14.8 nM	> 50 µM
O=C(NCc1ccc(F)cc1F)c1cn2c(c(O)c1=O)C(=O)N1CCc3cc(Cl)ccc3[C@@H]2C1 [Example 140-2, (13R)-10-chloro-N-(2,4-difluorobenzyl)-4-hydroxy-3,5-dioxo-3,5,8,13-tetrahydro-7H-6,13-methanobenzo[g]pyrido[1,2-a][1,4]diazonine-2-carboxamide]	22.4 nM	0.347 nM	1.92 nM	5.23 µM
O=C(NCc1c(F)cc(F)cc1F)c1cn2c(c(O)c1=O)C(=O)N1CCN(C(F)(F)F)CC2C1 (centres unmarked) [Example 141, 12-hydroxy-1,11-dioxo-N-(2,4,6-trifluorobenzyl)-5-(trifluoromethyl)-1,4,5,6,7,11-hexahydro-3H-2,7-methanopyrido[1,2-a][1,4,7]triazonine-10-carboxamide]	199 nM	29.6 nM	> 100 nM	> 50 µM
C[C@@H]1C[C@H]2CN(C(=O)c3c(O)c(=O)c(C(=O)NCc4c(F)cc(F)cc4F)cn32)[C@@H](C)C1 [Example 142-1, (3S,5S,7S)-12-hydroxy-3,5-dimethyl-1,11-dioxo-N-(2,4,6-trifluorobenzyl)-1,4,5,6,7,11-hexahydro-3H-2,7-methanopyrido[1,2-a][1,4]diazonine-10-carboxamide]	1.18 nM	0.354 nM	1.97 nM	8.42 µM
C[C@H]1C[C@H]2CN(C(=O)c3c(O)c(=O)c(C(=O)NCc4c(F)cc(F)cc4F)cn32)[C@@H](C)C1 [Example 142-2, (3S,5R,7S)-12-hydroxy-3,5-dimethyl-1,11-dioxo-N-(2,4,6-trifluorobenzyl)-1,4,5,6,7,11-hexahydro-3H-2,7-methanopyrido[1,2-a][1,4]diazonine-10-carboxamide]	2.81 nM	0.363 nM	1.87 nM	13.6 µM
O=C(NCc1cccc(Cl)c1F)c1cn2c(c(O)c1=O)C(=O)N1Cc3cc(F)c(F)cc3C[C@@H]2C1 [Example 143-1, (6R)—N-(3-chloro-2-fluorobenzyl)-9,10-difluoro-1-hydroxy-2,14-dioxo-2,7,12,14-tetrahydro-6H-6,13-methanobenzo[f]pyrido[1,2-a][1,4]diazonine-3-carboxamide]	132 nM	4.75 nM	22.7 nM	> 50 µM
C[C@@H]1N2C[C@H](CCC1(C)F)n1cc(C(=O)NCc3c(F)cc(F)cc3F)c(=O)c(O)c1C2=O (stereo partly drawn) [Example 144-1, (3S,7S)-4-fluoro-12-hydroxy-3,4-dimethyl-1,11-dioxo-N-(2,4,6-trifluorobenzyl)-1,4,5,6,7,11-hexahydro-3H-2,7-methanopyrido[1,2-a][1,4]diazonine-10-carboxamide]	2.63 nM	0.285 nM	1.65 nM	9.18 µM
CC1=CC[C@H]2CN(C(=O)c3c(O)c(=O)c(C(=O)NCc4c(F)cc(F)cc4F)cn32)[C@H]1C [Example 144-2, (3S,7S)-12-hydroxy-3,4-dimethyl-1,11-dioxo-N-(2,4,6-trifluorobenzyl)-1,6,7,11-tetrahydro-3H-2,7-methanopyrido[1,2-a][1,4]diazonine-10-carboxamide]	4.46 nM	0.469 nM	1.98 nM	13.9 µM
O=C(NCc1c(F)cc(F)cc1F)c1cn2c(c(O)c1=O)C(=O)N1Cc3cc(F)ccc3C[C@H]2C1 [Example 145, (6S)-10-fluoro-1-hydroxy-2,14-dioxo-N-(2,4,6-trifluorobenzyl)-2,7,12,14-tetrahydro-6H-6,13-methanobenzo[f]pyrido[1,2-a][1,4]diazonine-3-carboxamide]	0.92 nM	0.218 nM	0.822 nM	8.85 µM
O=C(NCc1ccc(F)cc1F)c1cn2c(c(O)c1=O)C(=O)N1Cc3cc(F)ccc3C[C@H]2C1 [Example 146, (6S)—N-(2,4-difluorobenzyl)-10-fluoro-1-hydroxy-2,14-dioxo-2,7,12,14-tetrahydro-6H-6,13-methanobenzo[f]pyrido[1,2-a][1,4]diazonine-3-carboxamide]	1.12 nM	0.227 nM	1.76 nM	> 50 µM
O=C(NCc1c(F)cc(F)cc1F)c1cn2c(c(O)c1=O)C(=O)N1CCc3ccc(F)cc3[C@H]2C1 [Example 147, (13S)-11-fluoro-4-hydroxy-3,5-dioxo-N-(2,4,6-trifluorobenzyl)-3,5,8,13-tetrahydro-7H-6,13-methanobenzo[g]pyrido[1,2-a][1,4]diazonine-2-carboxamide]	3.64 nM	0.375 nM	2.14 nM	6.91 µM
C[C@H]1C=CC[C@H]2CN1C(=O)c1c(O)c(=O)c(C(=O)NCc3c(F)cc(F)cc3F)cn12 [Example 148, (3S,7S)-12-hydroxy-3-methyl-1,11-dioxo-N-(2,4,6-trifluorobenzyl)-1,6,7,11-tetrahydro-3H-2,7-methanopyrido[1,2-a][1,4]diazonine-10-carboxamide]	6.34 nM	0.182 nM	1.67 nM	13.8 µM
C[C@H]1C=CC[C@H]2CN1C(=O)c1c(O)c(=O)c(C(=O)NCc3ccc(F)cc3F)cn12 [Example 149, (3S,7S)—N-(2,4-difluorobenzyl)-12-hydroxy-3-methyl-1,11-dioxo-1,6,7,11-tetrahydro-3H-2,7-methanopyrido[1,2-a][1,4]diazonine-10-carboxamide]	2.97 nM	0.255 nM	1.59 nM	10 µM
C[C@@H]1CC[C@H]2C[C@@]23CN1C(=O)c1c(O)c(=O)c(C(=O)NCc2c(F)cc(F)cc2F)cn13 [Example 150, (1aS,4R,11aS)-7-hydroxy-4-methyl-6,8-dioxo-N-(2,4,6-trifluorobenzyl)-1a,2,3,4,6,8-hexahydro-1H-5,11a-methanocyclopropa[h]pyrido[1,2-a][1,4]diazonine-9-carboxamide]	4.41 nM	0.171 nM	1.98 nM	8.49 µM
